Test results reported in the supplement of paper PMC10307832.

Assays:
Test in all cases: relative viability (nuclei count vs DMSO), 5 days (fraction); higher = more cells survive
TPCA-1 + Crizotinib = compound: C1=CC(=CC=C1C2=CC(=C(S2)NC(=O)N)C(=O)N)F [TPCA-1] + C[C@@H](Oc1cc(-c2cnn(C3CCNCC3)c2)cnc1N)c1c(Cl)ccc(F)c1Cl [Crizotinib] (partner 1 µM)
Outline: (§1)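 Lung cancer cell lines in 1536-well plates got either a single drug or a fixed anchor-drug dose together with five library-drug doses (not always all listed) in √10 steps, by pin tool, on the day after seeding. Nuclei were counted after 5 days, and relative viability is the treated-to-vehicle ratio of nuclei counts. Values are medians of duplicate plates.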

TPCA-1 + Vorinostat = compound: C1=CC(=CC=C1C2=CC(=C(S2)NC(=O)N)C(=O)N)F [TPCA-1] + O=C(CCCCCCC(=O)Nc1ccccc1)NO [Vorinostat] (partner 1 µM)
Outline: as §1

[1] = compound: C[C@]12O[C@H](C[C@]1(O)CO)n1c3ccccc3c3c4c(c5c6ccccc6n2c5c31)CNC4=O [Lestaurtinib] + O=C(CCCCCCC(=O)Nc1ccccc1)NO [Vorinostat] (partner 1 µM)
Outline: as §1

TPCA-1 + Decitabine = compound: C1=CC(=CC=C1C2=CC(=C(S2)NC(=O)N)C(=O)N)F [TPCA-1] + Nc1ncn([C@H]2C[C@H](O)[C@@H](CO)O2)c(=O)n1 [Decitabine] (partner 2 µM)
Outline: as §1

## HOP-62
TPCA-1 + Crizotinib; first compound 0.04 µM
  relative viability: 0.974
TPCA-1 + Crizotinib; first compound 0.1265 µM
  relative viability: 0.865
TPCA-1 + Crizotinib; first compound 0.4 µM
  relative viability: 0.974
TPCA-1 + Crizotinib; first compound 1.265 µM
  relative viability: 1.05
TPCA-1 + Crizotinib; first compound 4 µM
  relative viability: 0.641
TPCA-1 + Vorinostat; first compound 0.04 µM
  relative viability: 0.771
TPCA-1 + Vorinostat; first compound 0.1265 µM
  relative viability: 0.52
TPCA-1 + Vorinostat; first compound 0.4 µM
  relative viability: 0.688
TPCA-1 + Vorinostat; first compound 1.265 µM
  relative viability: 0.381
TPCA-1 + Vorinostat; first compound 4 µM
  relative viability: 0.176
[1]; first compound 0.005 µM
  relative viability: 0.632
[1]; first compound 0.01581 µM
  relative viability: 0.767
[1]; first compound 0.05 µM
  relative viability: 0.494
[1]; first compound 0.1581 µM
  relative viability: 0.426
[1]; first compound 0.5 µM
  relative viability: 0.295
TPCA-1 + Decitabine; first compound 0.04 µM
  relative viability: 0.261
TPCA-1 + Decitabine; first compound 0.1265 µM
  relative viability: 0.198
TPCA-1 + Decitabine; first compound 0.4 µM
  relative viability: 0.215
TPCA-1 + Decitabine; first compound 1.265 µM
  relative viability: 0.198
TPCA-1 + Decitabine; first compound 4 µM
  relative viability: 0.214

## NCI-H2087
TPCA-1 + Crizotinib; first compound 0.04 µM
  relative viability: 0.801
TPCA-1 + Crizotinib; first compound 0.1265 µM
  relative viability: 0.828
TPCA-1 + Crizotinib; first compound 0.4 µM
  relative viability: 0.781
TPCA-1 + Crizotinib; first compound 1.265 µM
  relative viability: 0.867
TPCA-1 + Crizotinib; first compound 4 µM
  relative viability: 0.283
TPCA-1 + Vorinostat; first compound 0.04 µM
  relative viability: 0.734
TPCA-1 + Vorinostat; first compound 0.1265 µM
  relative viability: 0.759
TPCA-1 + Vorinostat; first compound 0.4 µM
  relative viability: 0.911
TPCA-1 + Vorinostat; first compound 1.265 µM
  relative viability: 0.629
TPCA-1 + Vorinostat; first compound 4 µM
  relative viability: 0.266
[1]; first compound 0.005 µM
  relative viability: 0.815
[1]; first compound 0.01581 µM
  relative viability: 0.652
[1]; first compound 0.05 µM
  relative viability: 0.667
[1]; first compound 0.1581 µM
  relative viability: 0.474
[1]; first compound 0.5 µM
  relative viability: 0.373
TPCA-1 + Decitabine; first compound 0.04 µM
  relative viability: 0.255
TPCA-1 + Decitabine; first compound 0.1265 µM
  relative viability: 0.222
TPCA-1 + Decitabine; first compound 0.4 µM
  relative viability: 0.311
TPCA-1 + Decitabine; first compound 1.265 µM
  relative viability: 0.335
TPCA-1 + Decitabine; first compound 4 µM
  relative viability: 0.152

## PC-3 [JPC-3]
TPCA-1 + Crizotinib; first compound 0.04 µM
  relative viability: 0.982
TPCA-1 + Crizotinib; first compound 0.1265 µM
  relative viability: 0.943
TPCA-1 + Crizotinib; first compound 0.4 µM
  relative viability: 1.07
TPCA-1 + Crizotinib; first compound 1.265 µM
  relative viability: 0.962
TPCA-1 + Crizotinib; first compound 4 µM
  relative viability: 0.819
TPCA-1 + Vorinostat; first compound 0.04 µM
  relative viability: 0.787
TPCA-1 + Vorinostat; first compound 0.1265 µM
  relative viability: 0.765
TPCA-1 + Vorinostat; first compound 0.4 µM
  relative viability: 0.963
TPCA-1 + Vorinostat; first compound 1.265 µM
  relative viability: 0.818
TPCA-1 + Vorinostat; first compound 4 µM
  relative viability: 0.284
[1]; first compound 0.005 µM
  relative viability: 0.644
[1]; first compound 0.01581 µM
  relative viability: 1.15
[1]; first compound 0.05 µM
  relative viability: 0.866
[1]; first compound 0.1581 µM
  relative viability: 0.816
[1]; first compound 0.5 µM
  relative viability: 0.469
TPCA-1 + Decitabine; first compound 0.04 µM
  relative viability: 0.862
TPCA-1 + Decitabine; first compound 0.1265 µM
  relative viability: 0.916
TPCA-1 + Decitabine; first compound 0.4 µM
  relative viability: 0.838
TPCA-1 + Decitabine; first compound 1.265 µM
  relative viability: 0.813
TPCA-1 + Decitabine; first compound 4 µM
  relative viability: 0.818

## H3255
TPCA-1 + Crizotinib; first compound 0.04 µM
  relative viability: 0.815
TPCA-1 + Crizotinib; first compound 0.1265 µM
  relative viability: 0.882
TPCA-1 + Crizotinib; first compound 0.4 µM
  relative viability: 0.863
TPCA-1 + Crizotinib; first compound 1.265 µM
  relative viability: 0.674
TPCA-1 + Crizotinib; first compound 4 µM
  relative viability: 0.848
TPCA-1 + Vorinostat; first compound 0.04 µM
  relative viability: 0.82
TPCA-1 + Vorinostat; first compound 0.1265 µM
  relative viability: 0.461
TPCA-1 + Vorinostat; first compound 0.4 µM
  relative viability: 0.819
TPCA-1 + Vorinostat; first compound 1.265 µM
  relative viability: 0.694
TPCA-1 + Vorinostat; first compound 4 µM
  relative viability: 0.512
[1]; first compound 0.005 µM
  relative viability: 0.769
[1]; first compound 0.01581 µM
  relative viability: 0.928
[1]; first compound 0.05 µM
  relative viability: 0.752
[1]; first compound 0.1581 µM
  relative viability: 0.651
[1]; first compound 0.5 µM
  relative viability: 0.402
TPCA-1 + Decitabine; first compound 0.04 µM
  relative viability: 0.71
TPCA-1 + Decitabine; first compound 0.1265 µM
  relative viability: 0.553
TPCA-1 + Decitabine; first compound 0.4 µM
  relative viability: 0.676
TPCA-1 + Decitabine; first compound 1.265 µM
  relative viability: 0.513
TPCA-1 + Decitabine; first compound 4 µM
  relative viability: 0.475

## EMC-BAC-2
TPCA-1 + Crizotinib; first compound 0.04 µM
  relative viability: 0.737
TPCA-1 + Crizotinib; first compound 0.1265 µM
  relative viability: 0.836
TPCA-1 + Crizotinib; first compound 0.4 µM
  relative viability: 0.788
TPCA-1 + Crizotinib; first compound 1.265 µM
  relative viability: 0.755
TPCA-1 + Crizotinib; first compound 4 µM
  relative viability: 0.663
TPCA-1 + Vorinostat; first compound 0.04 µM
  relative viability: 0.461
TPCA-1 + Vorinostat; first compound 0.1265 µM
  relative viability: 0.447
TPCA-1 + Vorinostat; first compound 0.4 µM
  relative viability: 0.615
TPCA-1 + Vorinostat; first compound 1.265 µM
  relative viability: 0.413
TPCA-1 + Vorinostat; first compound 4 µM
  relative viability: 0.203
[1]; first compound 0.005 µM
  relative viability: 0.32
[1]; first compound 0.01581 µM
  relative viability: 0.703
[1]; first compound 0.05 µM
  relative viability: 0.337
[1]; first compound 0.1581 µM
  relative viability: 0.317
[1]; first compound 0.5 µM
  relative viability: 0.222
TPCA-1 + Decitabine; first compound 0.04 µM
  relative viability: 0.997
TPCA-1 + Decitabine; first compound 0.1265 µM
  relative viability: 0.972
TPCA-1 + Decitabine; first compound 0.4 µM
  relative viability: 0.939
TPCA-1 + Decitabine; first compound 1.265 µM
  relative viability: 0.852
TPCA-1 + Decitabine; first compound 4 µM
  relative viability: 0.898

## NCI-H650
TPCA-1 + Crizotinib; first compound 0.04 µM
  relative viability: 0.707
TPCA-1 + Crizotinib; first compound 0.1265 µM
  relative viability: 0.522
TPCA-1 + Crizotinib; first compound 0.4 µM
  relative viability: 0.688
TPCA-1 + Crizotinib; first compound 1.265 µM
  relative viability: 0.373
TPCA-1 + Crizotinib; first compound 4 µM
  relative viability: 0.382
TPCA-1 + Vorinostat; first compound 0.04 µM
  relative viability: 0.414
TPCA-1 + Vorinostat; first compound 0.1265 µM
  relative viability: 0.402
TPCA-1 + Vorinostat; first compound 0.4 µM
  relative viability: 0.41
TPCA-1 + Vorinostat; first compound 1.265 µM
  relative viability: 0.308
TPCA-1 + Vorinostat; first compound 4 µM
  relative viability: 0.27
[1]; first compound 0.005 µM
  relative viability: 0.448
[1]; first compound 0.01581 µM
  relative viability: 0.427
[1]; first compound 0.05 µM
  relative viability: 0.385
[1]; first compound 0.1581 µM
  relative viability: 0.28
[1]; first compound 0.5 µM
  relative viability: 0.149
TPCA-1 + Decitabine; first compound 0.04 µM
  relative viability: 0.347
TPCA-1 + Decitabine; first compound 0.1265 µM
  relative viability: 0.359
TPCA-1 + Decitabine; first compound 0.4 µM
  relative viability: 0.338
TPCA-1 + Decitabine; first compound 1.265 µM
  relative viability: 0.331
TPCA-1 + Decitabine; first compound 4 µM
  relative viability: 0.3

## SK-MES-1
TPCA-1 + Crizotinib; first compound 0.04 µM
  relative viability: 1
TPCA-1 + Crizotinib; first compound 0.1265 µM
  relative viability: 0.907
TPCA-1 + Crizotinib; first compound 0.4 µM
  relative viability: 0.923
TPCA-1 + Crizotinib; first compound 1.265 µM
  relative viability: 0.948
TPCA-1 + Crizotinib; first compound 4 µM
  relative viability: 0.589
TPCA-1 + Vorinostat; first compound 0.04 µM
  relative viability: 1.14
TPCA-1 + Vorinostat; first compound 0.1265 µM
  relative viability: 1.01
TPCA-1 + Vorinostat; first compound 0.4 µM
  relative viability: 0.966
TPCA-1 + Vorinostat; first compound 1.265 µM
  relative viability: 1.02
TPCA-1 + Vorinostat; first compound 4 µM
  relative viability: 0.438
[1]; first compound 0.005 µM
  relative viability: 1.18
[1]; first compound 0.01581 µM
  relative viability: 1.05
[1]; first compound 0.05 µM
  relative viability: 0.487
[1]; first compound 0.1581 µM
  relative viability: 0.411
[1]; first compound 0.5 µM
  relative viability: 0.215
TPCA-1 + Decitabine; first compound 0.04 µM
  relative viability: 0.39
TPCA-1 + Decitabine; first compound 0.1265 µM
  relative viability: 0.348
TPCA-1 + Decitabine; first compound 0.4 µM
  relative viability: 0.37
TPCA-1 + Decitabine; first compound 1.265 µM
  relative viability: 0.342
TPCA-1 + Decitabine; first compound 4 µM
  relative viability: 0.321

## NCI-H1355
TPCA-1 + Crizotinib; first compound 0.04 µM
  relative viability: 1.1
TPCA-1 + Crizotinib; first compound 0.1265 µM
  relative viability: 1.03
TPCA-1 + Crizotinib; first compound 0.4 µM
  relative viability: 1.11
TPCA-1 + Crizotinib; first compound 1.265 µM
  relative viability: 0.977
TPCA-1 + Crizotinib; first compound 4 µM
  relative viability: 0.712
TPCA-1 + Vorinostat; first compound 0.04 µM
  relative viability: 0.735
TPCA-1 + Vorinostat; first compound 0.1265 µM
  relative viability: 0.603
TPCA-1 + Vorinostat; first compound 0.4 µM
  relative viability: 0.611
TPCA-1 + Vorinostat; first compound 1.265 µM
  relative viability: 0.582
TPCA-1 + Vorinostat; first compound 4 µM
  relative viability: 0.553
[1]; first compound 0.005 µM
  relative viability: 0.733
[1]; first compound 0.01581 µM
  relative viability: 0.675
[1]; first compound 0.05 µM
  relative viability: 0.457
[1]; first compound 0.1581 µM
  relative viability: 0.412
[1]; first compound 0.5 µM
  relative viability: 0.31
TPCA-1 + Decitabine; first compound 0.04 µM
  relative viability: 0.365
TPCA-1 + Decitabine; first compound 0.1265 µM
  relative viability: 0.35
TPCA-1 + Decitabine; first compound 0.4 µM
  relative viability: 0.342
TPCA-1 + Decitabine; first compound 1.265 µM
  relative viability: 0.346
TPCA-1 + Decitabine; first compound 4 µM
  relative viability: 0.354
